Measurements reported in US8987474B2 (University of South Florida, priority 2006, dated 2015).
Read-outs that look alike come from different tables or passages of the source.

How the values were obtained:
Shp2 = Shp2 (Homo sapiens (Human), UniProt Q06124); test: PTP activity assay (DiFMUP substrate) with GST-Shp2; type: biochemical
From the text: (§1) All constructs were verified by DNA sequencing.
(§2) Recombinant DEP1 was from Abcam.

Shp1 [1] = target: T1, Shp1 (Homo sapiens (Human), UniProt P29350)
T1 sequence (P29350 203-595): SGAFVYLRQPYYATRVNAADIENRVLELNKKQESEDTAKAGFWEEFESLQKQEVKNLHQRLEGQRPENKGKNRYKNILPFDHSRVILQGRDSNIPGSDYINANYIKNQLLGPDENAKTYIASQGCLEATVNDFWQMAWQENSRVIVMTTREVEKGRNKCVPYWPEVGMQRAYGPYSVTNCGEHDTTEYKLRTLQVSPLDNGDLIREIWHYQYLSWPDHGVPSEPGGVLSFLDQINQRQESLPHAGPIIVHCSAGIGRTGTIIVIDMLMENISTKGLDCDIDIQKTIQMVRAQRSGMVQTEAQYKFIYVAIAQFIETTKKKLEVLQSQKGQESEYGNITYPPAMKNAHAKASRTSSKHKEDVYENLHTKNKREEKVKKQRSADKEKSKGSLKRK

Shp1 [2] = target: T1, Shp1; test: biochemical
PTP1B = PTP1B (Homo sapiens (Human), UniProt P18031); test: PTP activity assay (DiFMUP substrate) with GST-PTP1B; type: biochemical; conditions: in vitro
Chain of PTP1B (P18031 whole entry): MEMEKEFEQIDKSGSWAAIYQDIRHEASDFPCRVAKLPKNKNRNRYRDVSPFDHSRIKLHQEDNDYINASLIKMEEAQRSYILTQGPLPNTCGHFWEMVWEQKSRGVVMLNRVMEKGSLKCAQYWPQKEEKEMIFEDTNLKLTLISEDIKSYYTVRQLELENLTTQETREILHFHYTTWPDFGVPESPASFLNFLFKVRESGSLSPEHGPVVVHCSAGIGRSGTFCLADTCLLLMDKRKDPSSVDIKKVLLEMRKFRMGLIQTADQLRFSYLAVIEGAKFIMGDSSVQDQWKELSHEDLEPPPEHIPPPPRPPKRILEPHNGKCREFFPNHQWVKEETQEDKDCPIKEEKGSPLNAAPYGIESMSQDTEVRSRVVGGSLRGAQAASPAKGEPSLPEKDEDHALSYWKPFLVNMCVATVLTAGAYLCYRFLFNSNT
From the text: as §1, §2

DEP1 = DEP1 (Homo sapiens (Human), UniProt Q12913); test: PTP activity assay (DiFMUP substrate) with recombinant DEP1; type: biochemical; conditions: DEP1, in vitro
Chain of DEP1 (Q12913 36-1337): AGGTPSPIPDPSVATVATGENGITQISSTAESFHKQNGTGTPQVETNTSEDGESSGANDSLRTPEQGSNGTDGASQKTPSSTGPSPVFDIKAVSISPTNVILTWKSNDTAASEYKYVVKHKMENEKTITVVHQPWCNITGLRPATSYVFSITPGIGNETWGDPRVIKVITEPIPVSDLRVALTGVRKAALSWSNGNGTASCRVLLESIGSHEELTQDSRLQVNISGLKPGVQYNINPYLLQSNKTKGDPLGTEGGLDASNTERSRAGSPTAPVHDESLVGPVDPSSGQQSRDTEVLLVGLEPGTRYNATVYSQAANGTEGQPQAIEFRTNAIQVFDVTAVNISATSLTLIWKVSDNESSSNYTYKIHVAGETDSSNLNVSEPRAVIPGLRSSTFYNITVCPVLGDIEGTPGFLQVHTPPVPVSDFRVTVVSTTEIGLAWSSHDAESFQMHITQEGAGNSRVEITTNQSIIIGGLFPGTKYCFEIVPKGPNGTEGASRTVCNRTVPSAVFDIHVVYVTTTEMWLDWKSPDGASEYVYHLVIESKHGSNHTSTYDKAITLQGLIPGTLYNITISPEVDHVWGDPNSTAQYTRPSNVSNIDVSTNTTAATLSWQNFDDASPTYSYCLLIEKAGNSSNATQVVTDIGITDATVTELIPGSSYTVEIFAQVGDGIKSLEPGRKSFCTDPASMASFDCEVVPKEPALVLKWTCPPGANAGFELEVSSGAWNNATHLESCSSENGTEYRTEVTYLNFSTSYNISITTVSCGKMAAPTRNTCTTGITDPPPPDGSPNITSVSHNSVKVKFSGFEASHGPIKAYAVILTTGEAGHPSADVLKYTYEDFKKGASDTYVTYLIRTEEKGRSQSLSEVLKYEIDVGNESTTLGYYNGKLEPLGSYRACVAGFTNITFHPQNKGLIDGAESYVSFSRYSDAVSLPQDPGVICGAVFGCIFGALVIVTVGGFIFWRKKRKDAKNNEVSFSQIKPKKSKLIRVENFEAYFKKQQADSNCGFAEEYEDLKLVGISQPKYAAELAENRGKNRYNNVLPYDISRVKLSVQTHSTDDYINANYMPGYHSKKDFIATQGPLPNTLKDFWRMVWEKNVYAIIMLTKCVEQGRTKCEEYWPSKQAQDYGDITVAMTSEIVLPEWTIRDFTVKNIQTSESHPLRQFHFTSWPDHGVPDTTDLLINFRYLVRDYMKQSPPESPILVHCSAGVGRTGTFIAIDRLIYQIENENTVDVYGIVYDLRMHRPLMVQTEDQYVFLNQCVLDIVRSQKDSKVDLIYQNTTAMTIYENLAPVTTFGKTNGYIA

CD45 = CD45 (Homo sapiens (Human), UniProt P08575); test: PTP activity assay (DiFMUP substrate) with recombinant CD45; type: biochemical; conditions: CD45, in vitro
Chain of CD45 (P08575 609-1306): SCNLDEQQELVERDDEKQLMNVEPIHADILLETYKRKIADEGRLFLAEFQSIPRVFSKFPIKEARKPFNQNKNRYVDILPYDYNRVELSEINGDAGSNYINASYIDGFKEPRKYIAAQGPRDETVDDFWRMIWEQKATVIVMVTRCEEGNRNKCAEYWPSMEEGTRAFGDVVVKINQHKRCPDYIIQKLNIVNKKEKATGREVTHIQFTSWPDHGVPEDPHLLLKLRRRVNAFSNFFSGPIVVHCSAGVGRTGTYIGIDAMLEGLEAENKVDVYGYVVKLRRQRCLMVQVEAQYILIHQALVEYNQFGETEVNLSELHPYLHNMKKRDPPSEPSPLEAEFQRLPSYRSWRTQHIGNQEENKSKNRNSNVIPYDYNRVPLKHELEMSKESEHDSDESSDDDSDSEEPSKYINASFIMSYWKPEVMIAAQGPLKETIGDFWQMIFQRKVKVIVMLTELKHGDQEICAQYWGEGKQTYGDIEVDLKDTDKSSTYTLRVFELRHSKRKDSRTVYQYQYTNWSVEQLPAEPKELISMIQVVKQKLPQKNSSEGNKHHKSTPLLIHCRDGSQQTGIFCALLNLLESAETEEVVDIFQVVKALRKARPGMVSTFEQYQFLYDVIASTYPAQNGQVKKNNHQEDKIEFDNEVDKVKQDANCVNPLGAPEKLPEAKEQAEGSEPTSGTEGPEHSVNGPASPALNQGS

LAR = LAR (Homo sapiens (Human), UniProt P10586); test: PTP activity assay (DiFMUP substrate) with LAR D1 domain; type: biochemical; conditions: in vitro
Chain of LAR (P10586 1352-1607): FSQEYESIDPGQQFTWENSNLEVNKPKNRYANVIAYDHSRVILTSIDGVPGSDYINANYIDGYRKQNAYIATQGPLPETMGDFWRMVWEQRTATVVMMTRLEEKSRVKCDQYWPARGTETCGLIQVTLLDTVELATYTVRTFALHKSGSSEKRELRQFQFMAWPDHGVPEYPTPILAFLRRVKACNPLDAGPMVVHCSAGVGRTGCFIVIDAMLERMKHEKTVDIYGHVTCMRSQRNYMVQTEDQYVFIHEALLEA

[3] = system: Gab1 tyrosine phosphorylation and Gab1-Shp2 association; test: EGF-induced Gab1 tyrosine phosphorylation and Gab1-Shp2 association in HEK293 cells; type: cell-based; conditions: 20 μM, 3 h, EGF 5 ng/ml 5 min
Method: . Gab1 was immunoprecipitated from cell lysate supernatants. Immunoprecipitates were analyzed by immunoblotting with antibodies to phosphotyrosine (pY), Gab1, or Shp2. An aliquot of each cell lysate supernatant (30 μg) was also examined by immunoblotting with an antibody to Shp2 (bottom panel). pY-Gab1, tyrosine-phosphorylated Gab1.
Shp2 is activated in EGF-stimulated cells by binding to tyrosine-phosphorylated Gab1 (and Gab2 if it is also expressed) (Cunnick et al., 2001). […] . […] . […] .

Chain of Shp2 (Q06124 205-593): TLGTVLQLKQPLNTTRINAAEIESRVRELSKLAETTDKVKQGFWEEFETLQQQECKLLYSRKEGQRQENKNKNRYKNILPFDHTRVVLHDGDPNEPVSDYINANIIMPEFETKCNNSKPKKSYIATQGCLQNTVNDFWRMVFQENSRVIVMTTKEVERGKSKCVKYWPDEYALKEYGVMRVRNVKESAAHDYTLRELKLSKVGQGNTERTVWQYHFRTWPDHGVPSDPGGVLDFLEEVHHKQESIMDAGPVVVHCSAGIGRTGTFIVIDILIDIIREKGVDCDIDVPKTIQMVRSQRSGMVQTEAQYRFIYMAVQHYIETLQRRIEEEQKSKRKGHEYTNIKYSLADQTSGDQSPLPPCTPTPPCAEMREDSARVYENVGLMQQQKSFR

Compound	% PTP activity (Shp2; at 20 μM)	IC50 (Shp1 [1]) [µM]	% PTP activity (Shp2; concentration not given)	IC50 (Shp1 [2]) [µM]	also measured
CC(C)NS(=O)(=O)c1ccc2c(c1)/C(=N/Nc1cccc(C(=O)O)c1)C(=O)N2 [RPM297, 3-[N′-(5-Isopropylsulfamoyl-2-oxo-1,2-dihydro-indol-3-ylidene)hydrazino]benzoic acid]	54 ± 8% (2) At 20 μM	15.7			
O=C1Nc2ccc(S(=O)(=O)O)cc2/C1=N/Nc1ccccc1[N+](=O)[O-] [HL1-056]		68.1	86 ± 3% (6)		
NS(=O)(=O)c1ccc2c(c1)/C(=N/Nc1ccccc1[N+](=O)[O-])C(=O)N2 [RPM134, 3-[(2-Nitrophenyl)hydrazono]-2-oxo-2,3-dihydro-1H-indole-5-sulfonicamide]			13 ± 5% (12)	93.5	
O=C1Nc2ccc(C(=O)NCc3ccc(Cl)cc3)cc2/C1=N/Nc1cccc(C(=O)O)c1 [HL2-070-5]	62.32% (1) at 20 μM	19.4			
O=C1Nc2ccc(C(=O)O)cc2/C1=N/Nc1ccccc1C(=O)O [HL2-052-2]	46 ± 3% (2) at 20 μM			21.4	
O=C1Nc2ccc(S(=O)(=O)NCc3ccc(Cl)cc3)cc2/C1=N/Nc1ccccc1[N+](=O)[O-] [RPM139, 3-[(2-Nitrophenyl)hydrazono]-2-oxo-2,3-dihydro-1H-indole-5-sulfonic acid 4-chlorobenzylamide]			12 ± 5% (12)	42.2	
O=S(=O)(O)c1ccc2cc(/N=N\c3cc(S(=O)(=O)O)c4cccnc4c3O)ccc2c1 [NSC-87877, 8-hydroxy-7-(6-sulfonaphthalen-2-yl)diazenyl-quinoline-5-sulfonic acid]				0.355	IC50 (PTP1B): 1.69 ± 0.407 µM; IC50 (DEP1): 65.6 ± 4.12 µM; IC50 (CD45): 84.5 ± 16.2 µM; IC50 (LAR): 151 ± 9.08 µM; EGF-stimulated Gab1 tyrosine phosphorylation [3]: did not inhibit; binding of Shp2 to Gab1 [3]: did not inhibit
CC(C)NS(=O)(=O)c1ccc2c(c1)/C(=N/Nc1ccccc1[N+](=O)[O-])C(=O)N2 [RPM169, 3-[(2-Nitrophenyl)hydrazono]-2-oxo-2,3-dihydro-1H-indole-5-sulfonic acid isopropylamide]			8 + 3% (12)	110	
CC(C)NS(=O)(=O)c1ccc2c(c1)/C(=N/Nc1ccccc1C(=O)O)C(=O)N2 [RPM186, 2-[N′-(5-Isopropylsulfamoyl-2-oxo-1,2-dihydro-indol-3-ylidene)-hydrazino]benzoic acid]	0.8 ± 1% (3) at 20 μM			10.8	
O=C1Nc2ccc(C(=O)O)cc2/C1=N/Nc1cccc(C(=O)O)c1 [HL2-052-3]	56.94% (1) at 20 μM	72.5			
